Molecular target: human serum albumin (HSA) (Homo sapiens, UniProt P02768)
Assay: Protein binding on chemically bonded HSA column (Chiralpak-HSA)
Conditions: remeasured in this study, pH 7.4
Description: Mobile phase A was 50 mM ammonium acetate adjusted to pH 7.4 and mobile phase B was 2-propanol. The flow rate was 1.5 mL/min and the run time was 6 min. The 2-propanol gradient was applied from 0 to 35% from 0 to 3.00 min and kept at 35% until 4.00 min.

human serum albumin (HSA), sequence (P02768 25-609): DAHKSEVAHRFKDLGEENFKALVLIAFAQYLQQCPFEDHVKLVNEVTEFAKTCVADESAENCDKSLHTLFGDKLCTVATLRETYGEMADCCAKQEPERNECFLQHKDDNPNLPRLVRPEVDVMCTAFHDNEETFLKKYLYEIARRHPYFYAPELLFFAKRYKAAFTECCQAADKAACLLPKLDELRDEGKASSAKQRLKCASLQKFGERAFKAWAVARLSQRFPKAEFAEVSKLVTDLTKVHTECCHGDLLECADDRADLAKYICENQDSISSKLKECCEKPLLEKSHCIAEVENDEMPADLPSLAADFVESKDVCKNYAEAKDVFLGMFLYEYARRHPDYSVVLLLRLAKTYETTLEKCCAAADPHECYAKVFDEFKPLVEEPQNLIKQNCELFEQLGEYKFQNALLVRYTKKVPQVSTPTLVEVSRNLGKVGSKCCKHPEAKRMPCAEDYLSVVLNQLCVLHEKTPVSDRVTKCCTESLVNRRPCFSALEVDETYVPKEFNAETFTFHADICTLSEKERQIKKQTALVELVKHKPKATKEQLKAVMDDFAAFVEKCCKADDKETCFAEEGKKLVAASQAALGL

Row | Structure (SMILES) | log K HSA
1 | CN(C)CCCN1c2ccccc2CCc2ccccc21 [Imipramine] | 5.59
2 | COc1ccc(Cc2nccc3cc(OC)c(OC)cc23)cc1OC [Papaverine] | 0.39
3 | CC(C)NCC(O)COc1cccc2ccccc12 (stereo not shown) [Propranolol] | 1.02
4 | CCCCNCC(O)c1ccc(O)cc1 (stereo not shown) [Bamethan] | 0.42

Test system: not given
Assay: not given
Conditions: previously published, IAM column manufactured 2004-2012; cited from earlier work

Row | Structure (SMILES) | CHI (IAM)
5 | CC(C(=O)O)c1cccc(C(=O)c2ccccc2)c1 (stereo not shown) [Ketoprofen] | 21.9

Same assay, conditions: reference CHI (IAM), old columns; cited from earlier work

Row | Structure (SMILES) | CHI (IAM) from ref [13]
6 | C[C@]12C=CC(=O)C=C1CC[C@@H]1[C@@H]2[C@@H](O)C[C@@]2(C)[C@H]1CC[C@]2(O)C(=O)CO [Prednisolone] | 28.00
7 | COc1cc2nc(N3CCN(C(=O)c4ccco4)CC3)nc(N)c2cc1OC [Prazosin] | 31.60
8 | C[C@H]1C[C@H]2[C@@H]3CCC4=CC(=O)C=C[C@]4(C)[C@@]3(F)[C@@H](O)C[C@]2(C)[C@@]1(O)C(=O)CO [Betamethasone] | 31.70
9 | CC(CCc1ccccc1)NCC(O)c1ccc(O)c(C(N)=O)c1 (stereo not shown) [Labetalol] | 43.90
10 | CCOC(=O)c1ncn2c1CN(C)C(=O)c1cc(F)ccc1-2 [Flumazenil] | 18.40
11 | CN(C)CCCN1c2ccccc2CCc2ccccc21 [Imipramine] | 51.60
12 | COc1ccc(Cc2nccc3cc(OC)c(OC)cc23)cc1OC [Papaverine] | 34.40
13 | CCOC(=O)C1=C(C)NC(C)=C(C(=O)OC)C1c1cccc(Cl)c1Cl (stereo not shown) [Felodipine] | 46.10
14 | COc1cc2c(c(OC)c1OC)-c1ccc(OC)c(=O)cc1[C@@H](NC(C)=O)CC2 [Colchicine] | 23.70
15 | CC(=O)N1CCN(c2ccc(OCC3COC(Cn4ccnc4)(c4ccc(Cl)cc4Cl)O3)cc2)CC1 (stereo not shown) [Ketoconazole] | 42.90
16 | CC(C(=O)O)c1cccc(C(=O)c2ccccc2)c1 (stereo not shown) [Ketoprofen] | 21.90
17 | CC(C)NCC(O)COc1cccc2ccccc12 (stereo not shown) [Propranolol] | 50.80

Same assay, conditions: system suitability test compounds, CHI (IAM) reference from the literature; cited from earlier work

Row | Structure (SMILES) | CHI (IAM)
18 | CCCC1O[C@@H]2C[C@H]3[C@@H]4CCC5=CC(=O)C=C[C@]5(C)[C@H]4[C@@H](O)C[C@]3(C)[C@]2(C(=O)CO)O1 (stereo partly shown) [Budesonide] | 38.7

Test system: not listed separately
Assay: IAM chromatography on new IAM.PC.DD2 columns (gradient HPLC, CHI (IAM))
Type: physicochemical
Set-up: key to CHI (IAM) “new” / P20511-014-3 CHI (IAM): CHI (IAM) from retention times calibrated to predefined CHI standards
Conditions: lower CHI (IAM) on new batches; outlier if difference greater than 7.2 CHI IAM units
Description: The IAM binding was measured using IAM.PC.DD2 HPLC columns (Regis Technologies, Inc., IL, USA) with dimensions of 100 x 4.6 mm, particle size 10 μm with 300 Å pore size.
Two batches of IAM.PC.DD2 columns were studied (R20511-014-3 and P20511-014-3) that had been prepared using the new batches of silica support.
The retention times were standardized using the IAM calibration mixture, containing octanophenone, heptanophenone, hexanophenone, valerophenone, butyrophenone, propiophenone, acetophenone, acetanilide and paracetamol. The retention times of the compounds were plotted against the isocratically determined and predefined CHI (IAM) values listed in Table 1. The slope and intercept of the obtained straight line was used to calculate the CHI IAM values of new compounds.

Row | Structure (SMILES) | outlier in correlation of reference CHI (IAM) with CHI (IAM) on column R20511-014-3
19 | CN(C)CCc1c[nH]c2ccc(C[C@H]3COC(=O)N3)cc12 [zolmitriptan] | outliers

Same assay, conditions: new IAM.PC.DD2 column batch P20511-014-3, pH 7.4

Row | Structure (SMILES) | P20511-014-3 CHI (IAM)
20 | C[C@]12C=CC(=O)C=C1CC[C@@H]1[C@@H]2[C@@H](O)C[C@@]2(C)[C@H]1CC[C@]2(O)C(=O)CO [Prednisolone] | 27.20
21 | COc1cc2nc(N3CCN(C(=O)c4ccco4)CC3)nc(N)c2cc1OC [Prazosin] | 29.35
22 | C[C@H]1C[C@H]2[C@@H]3CCC4=CC(=O)C=C[C@]4(C)[C@@]3(F)[C@@H](O)C[C@]2(C)[C@@]1(O)C(=O)CO [Betamethasone] | 30.05
23 | CC(CCc1ccccc1)NCC(O)c1ccc(O)c(C(N)=O)c1 (stereo not shown) [Labetalol] | 37.48
24 | CCOC(=O)c1ncn2c1CN(C)C(=O)c1cc(F)ccc1-2 [Flumazenil] | 18.27
25 | CN(C)CCCN1c2ccccc2CCc2ccccc21 [Imipramine] | 44.81
26 | COc1ccc(Cc2nccc3cc(OC)c(OC)cc23)cc1OC [Papaverine] | 31.15
27 | CCOC(=O)C1=C(C)NC(C)=C(C(=O)OC)C1c1cccc(Cl)c1Cl (stereo not shown) [Felodipine] | 44.45
28 | COc1cc2c(c(OC)c1OC)-c1ccc(OC)c(=O)cc1[C@@H](NC(C)=O)CC2 [Colchicine] | 23.18
29 | CC(=O)N1CCN(c2ccc(OCC3COC(Cn4ccnc4)(c4ccc(Cl)cc4Cl)O3)cc2)CC1 (stereo not shown) [Ketoconazole] | 39.26
30 | CC(C(=O)O)c1cccc(C(=O)c2ccccc2)c1 (stereo not shown) [Ketoprofen] | 23.89
31 | CC(C)NCC(O)COc1cccc2ccccc12 (stereo not shown) [Propranolol] | 41.46
32 | CCCCNCC(O)c1ccc(O)cc1 (stereo not shown) [Bamethan] | 18.03

Same assay, conditions: new IAM.PC.DD2 column batch R20511-014-3, pH 7.4

Row | Structure (SMILES) | R20511-014-3 CHI (IAM)
33 | C[C@]12C=CC(=O)C=C1CC[C@@H]1[C@@H]2[C@@H](O)C[C@@]2(C)[C@H]1CC[C@]2(O)C(=O)CO [Prednisolone] | 27.31
34 | COc1cc2nc(N3CCN(C(=O)c4ccco4)CC3)nc(N)c2cc1OC [Prazosin] | 29.82
35 | C[C@H]1C[C@H]2[C@@H]3CCC4=CC(=O)C=C[C@]4(C)[C@@]3(F)[C@@H](O)C[C@]2(C)[C@@]1(O)C(=O)CO [Betamethasone] | 30.18
36 | CC(CCc1ccccc1)NCC(O)c1ccc(O)c(C(N)=O)c1 (stereo not shown) [Labetalol] | 38.29
37 | CCOC(=O)c1ncn2c1CN(C)C(=O)c1cc(F)ccc1-2 [Flumazenil] | 18.27
38 | CN(C)CCCN1c2ccccc2CCc2ccccc21 [Imipramine] | 45.58
39 | COc1ccc(Cc2nccc3cc(OC)c(OC)cc23)cc1OC [Papaverine] | 31.22
40 | CCOC(=O)C1=C(C)NC(C)=C(C(=O)OC)C1c1cccc(Cl)c1Cl (stereo not shown) [Felodipine] | 44.37
41 | COc1cc2c(c(OC)c1OC)-c1ccc(OC)c(=O)cc1[C@@H](NC(C)=O)CC2 [Colchicine] | 23.45
42 | CC(=O)N1CCN(c2ccc(OCC3COC(Cn4ccnc4)(c4ccc(Cl)cc4Cl)O3)cc2)CC1 (stereo not shown) [Ketoconazole] | 39.50
43 | CC(C(=O)O)c1cccc(C(=O)c2ccccc2)c1 (stereo not shown) [Ketoprofen] | 22.93
44 | CC(C)NCC(O)COc1cccc2ccccc12 (stereo not shown) [Propranolol] | 42.24
45 | CCCCNCC(O)c1ccc(O)cc1 (stereo not shown) [Bamethan] | 18.53

Same assay, conditions: system suitability test compounds

Row | Structure (SMILES) | CHI (IAM) deviation between reference and new IAM.PC.DD2 columns
46 | CN(C)CCCN1c2ccccc2CCc2ccccc21 [Imipramine] | > 5 CHI (IAM) unit
47 | O=C(CCCN1CCC(O)(c2ccc(Cl)cc2)CC1)c1ccc(F)cc1 [Haloperidol] | very similar
48 | CC(C(=O)O)c1cccc(C(=O)c2ccccc2)c1 (stereo not shown) [Ketoprofen] | very similar
49 | CCCC1O[C@@H]2C[C@H]3[C@@H]4CCC5=CC(=O)C=C[C@]5(C)[C@H]4[C@@H](O)C[C@]3(C)[C@]2(C(=O)CO)O1 (stereo partly shown) [Budesonide] | very similar

Same assay, conditions: system suitability test compounds, new IAM.PC.DD2 columns, pH 7.4

Row | Structure (SMILES) | CHI (IAM) “new”
50 | CN(C)CCCN1c2ccccc2CCc2ccccc21 [Imipramine] | 45.0
51 | O=C(CCCN1CCC(O)(c2ccc(Cl)cc2)CC1)c1ccc(F)cc1 [Haloperidol] | 48
52 | COc1cc2c(c(OC)c1OC)-c1ccc(OC)c(=O)cc1[C@@H](NC(C)=O)CC2 [Colchicine] | 23.0
53 | CC(C(=O)O)c1cccc(C(=O)c2ccccc2)c1 (stereo not shown) [Ketoprofen] | 20.0
54 | CCCC1O[C@@H]2C[C@H]3[C@@H]4CCC5=CC(=O)C=C[C@]5(C)[C@H]4[C@@H](O)C[C@]3(C)[C@]2(C(=O)CO)O1 (stereo partly shown) [Budesonide] | 38
55 | CC(C)NCC(O)COc1cccc2ccccc12 (stereo not shown) [Propranolol] | 42.0
